# Data reported in paper PMC8329197, “Compounds targeting OSBPL7 increase ABCA1-dependent cholesterol efflux preserving kidney function in two models of kidney disease” (Nature Communications, 2021).
# Where “and” joins values, the source holds several entries; their conditions need not be identical. Identical values can stand only once.
# Tests used:
# [1] = system: Adriamycin (ADR)-induced nephropathy in Balb/c mice; assay: Adriamycin-induced nephropathy, main study: albumin/creatinine ratio and body weight
# [2] = system: Adriamycin (ADR)-induced nephropathy in Balb/c mice; assay: ADR nephropathy: liver total cholesterol, cholesterol esters, triglycerides; format: in vivo, mouse
# [3] = system: Adriamycin (ADR)-induced nephropathy in Balb/c mice; assay: Adriamycin-induced nephropathy, dose-finding pilot study: ACR and body weight time course; settings: ADR, 10 mg/Kg/day, individual mice, 10 mg/kg/day
# [4] = system: ABCA1 protein; assay: Cell fractionation: ABCA1 in plasma membrane and microsomal fractions of podocytes; format: cell-based, human; settings: ratio; Cpd C 1 µM, Cpd A 5 µM, Cpd G 10 µM; single preparations
# Experimental: Lysates, or cell fractions were incubated in Laemmli buffer at 55 °C for 10 min under reducing conditions. A total of 30 μg of protein from cell lysates or one-third of the volume collected in cell fraction preparations was separated by SDS-PAGE in 4–20% gradient gels (Biorad) and proteins were then transferred to PVDF membranes. After blocking with 5% TBS-milk, membranes were probed with primary antibodies overnight at 4 °C. The following primary antibodies were used: mouse anti-ABCA1 (Abcam; 1:1000), rabbit anti-GAPDH antibody (Millipore; 1:10,000), mouse anti-actin (CP01, Millipore 1:10,000), anti-MEK, anti-ERp72, anti-V5 and anti-Na^+/K^+ ATPase (Cell Signaling; all 1:1000), and rabbit anti-OSBPL7 (Sigma; 1:1000). After washing, membranes were incubated with anti-rabbit or and anti-mouse IgG-HRP antibodies (Promega, 1:10,000). Signals were detected after incubation with Westernbright ECL HRP substrate (Advansta) and luminescence signals were captured with Azure C600 Gel Imaging workstation (Azure Biosystems Inc, USA) or X-ray films.
# Differentiated podocytes were treated with compounds Cpd C (1 μM), Cpd A (5 μM), or Cpd G (10 μM) for 18 h, washed and then harvested in ice-cold PBS. Cells were centrifuged at 1000 × g for 5 min, the supernatant was carefully removed, and the pellet resuspended in hypotonic buffer (15 mM KCl, 1.5 mM MgCl2, 10 mM HEPES and 1 mM DTT) supplemented with a protease inhibitor cocktail (Roche). Cells were disrupted with a glass douncer, and sucrose was added to achieve final concentration of 227 mM. Cell lysates were centrifuged at 1000 × g for 30 min at 4 °C. The supernatant was then transferred to a new tube and centrifuged at 10,000 × g for 15 min at 4 °C. The pellet, containing the microsomal fraction was collected and the supernatant was transferred to a new tube and centrifuged at 100,000 × g for 1 h at 4 °C. The pelleted plasma membrane fraction was collected and the supernatant, containing the organelle-free cytosolic fraction, was concentrated in Vivaspin 500 filter columns. Western blot was performed using antibodies for ABCA1 and specific markers for each membrane fraction as described above. Na^+/K^+ ATPase was used to identify the plasma membrane fraction, ERp72 as a marker for the microsomal-enriched fraction, and MEK as the control for the non-membranous cytosolic fraction.
# [5] = system: Adriamycin (ADR)-induced nephropathy in Balb/c mice; assay: ADR nephropathy: WBC, hemoglobin, hematocrit, ALT, AST; format: in vivo, mouse; settings: ADR-induced nephropathy
# [6] = 28 days treatment, 25th quartile
# [7] = 28 days treatment, 75th quartile
# [8] = 28 days treatment, group maximum
# [9] = 28 days treatment, group median
# [10] = 28 days treatment, group minimum
# [11] = 28 days treatment, individual mouse values
compound,measurement,setting,value
"Cc1oc(-c2cccc(C(F)(F)F)c2)nc1Cn1c(C)cc2cc(C(O)(C(F)(F)F)C(F)(F)F)ccc21 [Cpd C, reference compound]",Effect on weight loss,[1]; 28 days after ADR,no significant effect to prevent weight loss
same,"ACR, median","[1]; 28 days after ADR, Cpd A 30, Cpd G 100, Cpd C 10 mg/Kg, group median",6.591 mg albumin/mg creatinine
same,Reduction in ACR,"[1]; Cpd C 10 mg/Kg, 28 days",more variable reduction in ACR
same,Weight (d28),"[1]; animal weight when therapy finished, single animals",19 and 13 and 20 and 16 and 22 and 17 and 18
same,"Weight Change (as % of weight at day 0), Median","[1]; day 28 after ADR, Cpd A 30, Cpd G 100, Cpd C 10 mg/Kg",-5%
same,Weight Change (as % of weight at day 0),"[1]; day 28 after ADR, Cpd A 30, Cpd G 100, Cpd C 10 mg/Kg, single animals",5.3% and 5.6% and -15.8% and 4.8% and -15% and 0% and -10% and -5% and -27.8%
same,ACR values (mg Albumin / mg Creatinine),"[1]; spot urine 28 days after ADR, oral daily Cpd A 30, Cpd G 100, Cpd C 10 mg/Kg, single animals",97.01 mg Albumin / mg Creatinine and 0.196 mg Albumin / mg Creatinine and 5.6 mg Albumin / mg Creatinine and 6.591 mg Albumin / mg Creatinine and 5.609 mg Albumin / mg Creatinine and 28.989 mg Albumin / mg Creatinine and 87.25 mg Albumin / mg Creatinine and 19.88 mg Albumin / mg Creatinine and 5.463 mg Albumin / mg Creatinine
same,LIVER CHOLESTEROL ESTERS,"[2]; ADR model, individual animals",3.92 nmol CE/ mg protein and 1.48 nmol CE/ mg protein and 3.2 nmol CE/ mg protein and 3.1 nmol CE/ mg protein
same,LIVER TOTAL CHOLESTEROL,"[2]; ADR model, individual animals",132 nmol Cholesterol/ mg protein and 89 nmol Cholesterol/ mg protein and 311 nmol Cholesterol/ mg protein and 91 nmol Cholesterol/ mg protein
same,LIVER TRIGLICERIDES,"[2]; ADR model, individual animals",48.5 nmol Triglycerides/ mg protein and 45 nmol Triglycerides/ mg protein and 67 nmol Triglycerides/ mg protein and 56 nmol Triglycerides/ mg protein
same,Hepatic triglyceride content vs. vehicle-treated controls,"[2]; ADR-challenged, 28 days",increased hepatic triglyceride content
same,Body Weight,[3]; 0 days after inj,20 grams and 18 grams (2×) and 19 grams (2×)
same,ACR in spot urine,[3]; 7 days after inj,0.033 mg Albumin/ mg Creatinine in urine and 0.087 mg Albumin/ mg Creatinine in urine and 0.021 mg Albumin/ mg Creatinine in urine and 0.039 mg Albumin/ mg Creatinine in urine and 0.361 mg Albumin/ mg Creatinine in urine
same,Body Weight,[3]; 7 days after inj,19 grams (2×) and 17 grams and 18 grams (2×)
same,ACR in spot urine,[3]; 14 days after inj,43.998 mg Albumin/ mg Creatinine in urine and 97.732 mg Albumin/ mg Creatinine in urine and 170.881 mg Albumin/ mg Creatinine in urine and 0.773 mg Albumin/ mg Creatinine in urine and 96.907 mg Albumin/ mg Creatinine in urine
same,Body Weight,[3]; 14 days after inj,18 grams (2×) and 15 grams and 17 grams (2×)
same,ACR in spot urine,[3]; 21 days after inj,110.345 mg Albumin/ mg Creatinine in urine and 164.518 mg Albumin/ mg Creatinine in urine and 91.2 mg Albumin/ mg Creatinine in urine and 9.219 mg Albumin/ mg Creatinine in urine and 93.57 mg Albumin/ mg Creatinine in urine
same,Body Weight,[3]; 21 days after inj,18 grams (2×) and 13 grams and 19 grams and 16 grams
same,ACR in spot urine,[3]; 28 days after inj,28.989 mg Albumin/ mg Creatinine in urine and 87.25 mg Albumin/ mg Creatinine in urine and 19.88 mg Albumin/ mg Creatinine in urine and 5.463 mg Albumin/ mg Creatinine in urine and 97.01 mg Albumin/ mg Creatinine in urine
same,Body Weight,[3]; 28 days after inj,19 grams (2×) and 13 grams and 20 grams and 16 grams
same,MICROSOMAL FRACTION:ABCA1/ERp72,[4],1.10 and 1.82 and 1.06
same,PLASMA MEMBRANE FRACTION: ABCA1/NaK ATPase,[4],1.10 and 0.65 and 0.77 and 1.14
same,"ALT, Median (IQR)",[5],146 (71-682) U/L
same,"ALT, Range",[5],68-838 U/L
same,"AST, Median (IQR)",[5],165 (104-371) U/L
same,"AST, Range",[5],90-433 U/L
same,"HTC, Median (IQR)",[5],55 (45-64) %
same,"HTC, Range",[5],43-65%
same,"Hgb, Median (IQR)",[5],13.3 g/dL
same,"Hgb, Range",[5],11 to 15.9 g/dL
same,"WBC, Median (IQR)",[5],6.2 (5.5-7.9) x103cells/µL
same,"WBC, Range",[5],5.4-8.3 x103cells/µL
same,"ALT, QR(25)",[5]; [6],76.25 U/L
same,"AST, QR(25)",[5]; [6],131.25 U/L
same,"HTC, QR(25)",[5]; [6],46%
same,"Hgb, QR(25)",[5]; [6],12.5 g/dL
same,"WBC, QR(25)",[5]; [6],6.4 x 10^3 cells/ul
same,"ALT, QR(75)",[5]; [7],369.25 U/L
same,"AST, QR(75)",[5]; [7],246.25 U/L
same,"HTC, QR(75)",[5]; [7],64%
same,"Hgb, QR(75)",[5]; [7],15.4 g/dL
same,"WBC, QR(75)",[5]; [7],10.3 x 10^3 cells/ul
same,"ALT, Max",[5]; [8],838 U/L
same,"AST, Max",[5]; [8],433 U/L
same,"HTC, Max",[5]; [8],65%
same,"Hgb, Max",[5]; [8],15.9 g/dL
same,"WBC, Max",[5]; [8],11.6 x 10^3 cells/ul
same,"ALT, Median",[5]; [9],146 U/L
same,"AST, Median",[5]; [9],164.5 U/L
same,"HTC, Median",[5]; [9],55%
same,"Hgb, Median",[5]; [9],13.3 g/dL
same,"WBC, Median",[5]; [9],6.7 x 10^3 cells/ul
same,"ALT, Min",[5]; [10],68 U/L
same,"AST, Min",[5]; [10],90 U/L
same,"HTC, Min",[5]; [10],43%
same,"Hgb, Min",[5]; [10],11 g/dL
same,"WBC, Min",[5]; [10],5.4 x 10^3 cells/ul
same,Alanine Aminotransferase (ALT),[5]; [11],213 U/dL and 68 U/dL and 79 U/dL and 838 U/dL
same,Aspartate Aminotransferase (AST),[5]; [11],184 U/dL and 90 U/dL and 145 U/dL and 433 U/dL
same,Hematocrit HTC,[5]; [11],64% and 65% and 55% and 46% and 43% and 44%
same,White Blood Cells WBC,[5]; [11],10.3 x 10^3 cells/ul and 6.7 x 10^3 cells/ul and 6.5 x 10^3 cells/ul and 5.9 x 10^3 cells/ul and 5.4 x 10^3 cells/ul and 8.3 x 10^3 cells/ul and 6.4 x 10^3 cells/ul and 11.6 x 10^3 cells/ul
